Experimental data published in US9439884B2, “Methods for the treatment of immune disorders” (Beth Israel Deaconess Medical Center, Inc., priority 2011, dated 2016).
“Also recorded” adds a separate entry of the source. Read-outs that look alike come from different tables or passages of the source. Blank lines part the entries; values can stand above or below the compound they belong to. *1 amine or outer side, *2 acyl side, *3 side chain or, on linkers, in order; H or OH if unused. Where a SMILES comes first, the peptide text is derived from it. Where no end group is shown, it is not given here. [ ]: non-standard residue; d: D form. 15N‑Ala = Ala with single 15N label, C[C@H]([15NH][*:1])C(=O)[*:2]; pS = N[C@@H](COP(=O)(O)O)C(=O)O

How the values were obtained:
[1] = biological target: T1, Pin1 (Homo sapiens, UniProt Q13526); test: Pin1 PPIase (catalytic activity) assay in vitro; format: biochemical
T1 sequence (Q13526 whole entry): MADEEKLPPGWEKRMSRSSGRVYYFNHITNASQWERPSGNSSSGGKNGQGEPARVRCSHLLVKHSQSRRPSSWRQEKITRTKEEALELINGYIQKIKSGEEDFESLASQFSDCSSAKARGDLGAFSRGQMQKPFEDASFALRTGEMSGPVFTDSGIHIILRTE
Text: (§1) In this regard, recently, we identified specific and potent Pin1 catalytic peptidic inhibitors and used them to establish a robust and sensitive FP-based HTS to screen approved drugs and NIH Chemical and Genomics Center, which led us to successfully identify all trans retinoic acid (ATRA) and four other Pin1 inhibitors active in cells for further optimization including Cpd4 (FIG. 27A).
(§2) We developed a fluorescence polarization (FP)-based HTS using fluorescence labeled Pin1 peptidic inhibitor, pTide to identify Pin1 inhibitors. Our screening of selected compounds at the Harvard ICCB-L libraries identified the strongest hit to be cis-RA according to the Z-score (FIG. 31A). To confirm that RAs target Pin1, we examined cis-RA and trans-RA in vitro and in cells. […] Cellular Pin1 activity was also reflected by cyclin D1 levels (FIG. 31D), a known Pin1 biomarker.

[2] = biological target: T1, Pin1; test: Fluorescence polarization (FP)-based HTS / displacement of labeled Pin1 peptidic inhibitor pTide; format: binding
Text: as §1, §2

[3] = biological target: T2, Pin1 WW domain (Homo sapiens, UniProt Q13526); test: 2D NMR (15N-1H HSQC) titration of 15N-WW domain with IRAK1 phosphopeptides; format: binding; conditions: chemical shift change of 15N-WW domain as a function of peptide concentration; read-out: dissociation constants (KD)
T2 construct: monitor the changes in the ^15N-WW domain induced by titration with phosphopeptide ligands
T2 sequence (Q13526 5-39 limits assumed): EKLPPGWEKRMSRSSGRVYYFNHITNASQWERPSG
Text: To measure the Pin1 interaction with each of the implicated pSer-Pro motifs in IRAK1, we employed two-dimensional (2D) NMR spectroscopy to monitor the changes in the ^15N-WW domain induced by titration with phosphopeptide ligands. In a 2d ^15N-^1H HSQC spectrum of a protein (FIG. 3a), each backbone NH group is represented by a peak, whose position reflects the chemical environment of that NH bond. Ligand binding to the protein is detected by changes in peak positions (fast exchange) or by the appearance of new peaks (slow exchange) as ligand is added. WW binding at each distinct IRAK1 site was measured using phosphopeptides containing residues 126-136 (pSer131-P132), 140-150 ([…]), and 157-180 (pSer173-P174) of IRAK1.

[4] = system: PP2A; test: Pin1 dephosphorylation in human PBMCs after TLR9 activation by CpG; format: cell-based; conditions: human PBMCs pretreated with 5 nM
Text: We have shown that in SLE T cells the message, protein and activity of PP2Ac is increased and is involved in their abnormal function. First, PP2Ac dephosphorylates pCREB and accounts for the decreased IL-2 production. Second, PP2Ac dephosphorylates the transcription factor Elf1 and decreases its ability to bind to the promoters of CD3zeta and FcRgamma genes causing suppression of the first and derepression of the second with significant repercussions in the composition of the CD3 complex in SLE T cells. Third, PP2Ac dephosphorylates (and activates) SP1, which binds to the promoter of IL-17A and promotes its expression. […] Moreover, Pin1 also was dephosphorylated in T cells isolated from CD2:PP2A transgenic mice that overexpresses PP2Ac in T cells developed in Dr. Tsokos laboratory, but not wild-type littermates (FIG. 25E). Therefore, it is reasonable to predict that increased PP2Ac activity may contribute to the dephosphorylation and activation of Pin1 in SLE. Alternatively, because calcineurin (CaN) can also dephosphorylate Pin1 in vitro (FIG. 25) and CaN inhibitors may have a place in the treatment of SLE, we will consider it as a viable alternative to PP2Ac.

[5] = biological target: T3, TLR9 (Homo sapiens, UniProt Q9NR96); conditions: cited from earlier work
T3 sequence (Q9NR96 26-1032): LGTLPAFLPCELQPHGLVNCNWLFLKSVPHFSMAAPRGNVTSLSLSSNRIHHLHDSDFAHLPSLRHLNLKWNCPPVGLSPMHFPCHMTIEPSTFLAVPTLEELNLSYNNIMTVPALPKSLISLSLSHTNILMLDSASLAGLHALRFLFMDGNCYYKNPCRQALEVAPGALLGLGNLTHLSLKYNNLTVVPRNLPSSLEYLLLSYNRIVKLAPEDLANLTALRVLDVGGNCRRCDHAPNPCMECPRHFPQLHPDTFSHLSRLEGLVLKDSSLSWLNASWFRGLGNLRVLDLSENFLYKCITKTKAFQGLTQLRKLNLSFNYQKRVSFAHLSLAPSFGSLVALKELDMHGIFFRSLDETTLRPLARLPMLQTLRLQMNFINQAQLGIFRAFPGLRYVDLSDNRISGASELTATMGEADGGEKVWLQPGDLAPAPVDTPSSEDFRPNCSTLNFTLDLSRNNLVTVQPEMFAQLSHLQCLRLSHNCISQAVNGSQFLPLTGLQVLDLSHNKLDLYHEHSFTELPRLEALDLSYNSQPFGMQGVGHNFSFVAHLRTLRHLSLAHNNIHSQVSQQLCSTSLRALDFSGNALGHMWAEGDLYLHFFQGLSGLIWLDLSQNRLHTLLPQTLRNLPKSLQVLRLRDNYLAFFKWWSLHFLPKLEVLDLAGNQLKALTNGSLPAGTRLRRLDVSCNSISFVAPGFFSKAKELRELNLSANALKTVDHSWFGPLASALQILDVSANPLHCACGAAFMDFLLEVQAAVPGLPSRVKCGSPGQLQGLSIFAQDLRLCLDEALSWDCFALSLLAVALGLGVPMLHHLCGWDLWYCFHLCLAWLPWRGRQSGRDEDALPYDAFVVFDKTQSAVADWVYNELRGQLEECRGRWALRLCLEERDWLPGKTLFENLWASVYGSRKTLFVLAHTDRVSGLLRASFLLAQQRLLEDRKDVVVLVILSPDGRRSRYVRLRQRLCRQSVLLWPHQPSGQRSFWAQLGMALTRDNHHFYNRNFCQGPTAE

[6] = system: T47D; test: Cell growth inhibition, T47D; format: cell-based; conditions: breast cancer cell line T47D
[7] = system: pDCs; test: Cytokine production of pDCs upon TLR9 activation by CpG; format: cell-based
[8] = biological target: T4, Pin1 (Mus musculus, UniProt Q9QUR7); test: Pin1 western and PPIase assay in IL-33-stimulated BM-derived eosinophils; format: cell-based; conditions: 100 ng/ml IL-33
T4 construct: endogenous in cells; host or cells: bone-marrow-derived eosinophils
T4 sequence (Q9QUR7 whole entry): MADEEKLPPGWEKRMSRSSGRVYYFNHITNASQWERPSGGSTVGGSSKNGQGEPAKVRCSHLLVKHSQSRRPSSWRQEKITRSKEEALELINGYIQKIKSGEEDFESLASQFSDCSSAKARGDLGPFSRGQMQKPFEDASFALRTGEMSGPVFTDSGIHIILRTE

[9] = system: Pin1 KO MEFs; test: Anti-proliferative effect in Pin1 KO MEFs with or without Pin1 re-expression; format: cell-based, mouse
[10] = system: NZBWF1 mice; test: Proteinuria in lupus-prone NZBWF1 mice (Bio-Rad assay); format: in vivo; conditions: female NZBWF1 mice, controlled release pellets, 3.5 months, vs placebo
Experimental: Female lupus-prone NZBWF1 mice were treated with placebo or ATRA for 3.5 months and proteinuria was evaluated by Bio-Rad assay.
Our objective here was to determine if the Pin1 inhibitor we have discovered, ATRA, offer a treatment benefit in preclinical models of SLE. To this end we have been treating NZBWF1 female mice for 3.5 months with controlled release ATRA pellets, which have been well established pharmacologically and which offer the advantage ease of delivery, reduced stress to subjects and controlled drug release. Each cohort has been pre-bleed and urine collected before the start of drug treatment. Subsequently, we have collected serum and urine samples monthly for evaluation of disease markers such as autoantibodies and proteinuria.

[11] = system: MCF-10A; test: Cell growth, normal breast cells MCF-10A; format: cell-based
[12] = system: SKBR3; test: Cell growth inhibition, SKBR3; format: cell-based; conditions: breast cancer cell line SKBR3
[13] = system: BM-derived eosinophils; test: IL-6 ELISA in IL-33-stimulated BM-derived eosinophils; format: cell-based; conditions: 100 ng/ml IL-33
[14] = system: cancer cells; test: Pin1-dependent cancer cell growth; format: cell-based
Text: as §1

[15] = biological target: T1, Pin1; test: Pin1 protein/mRNA levels and turnover in cells; format: cell-based
Text: as §2

[16] = system: lupus prone mouse models; conditions: some lupus prone mouse models; cited from earlier work
[17] = biological target: T1, Pin1; test: Co-crystal structure of Pin1 and ATRA; format: binding
[18] = biological target: T1, Pin1; test: 15N-1H Nzz exchange spectroscopy of Pin1-catalyzed cis-trans isomerization; format: biochemical; conditions: pS173P peptide bond; peptide 1 mM, Pin1 17 μM
Text: Because uncatalyzed cis-trans isomerization is a generally slow process (time constant minutes), the equilibrium between cis and trans isomers yields two distinct peaks for residues (such as A175) whose chemical environment differs in the two isomer states. […] The dependence of peak intensities on Nzz mixing time yields the cis-trans exchange rate. […] Based on peak intensities in the absence of Pin1, the pS173P trans:cis ratio is 85:15.

Compound: C=C1[C@@H](O)[C@@H]2O[C@]3(CC[C@H](/C=C/[C@@H](C)[C@@H]4CC(C)=C[C@@]5(O[C@H](C[C@@](C)(O)C(=O)O)CC[C@H]5O)O4)O3)CC[C@H]2O[C@@H]1[C@@H](O)C[C@H](C)[C@H]1O[C@@]2(CCCCO2)CC[C@H]1C [okadaic acid]
- Pin1 dephosphorylation after CpG [4]: reversed

Compound: CCN(CCO)CCCC(C)Nc1ccnc2cc(Cl)ccc12 (stereo not drawn) [hydroxychloroquine]
- stimulation of TLR9 [5]: inhibits stimulation of TLR9

The next lines start with results.

- inhibition of Pin1 catalytic (PPIase) activity [1]: Dose-dependant Pin1 inhibition
- hit ranking according to the Z-score ([2]; screening of Harvard ICCB-L libraries): strongest hit
Compound: CC1=C(/C=C/C(C)=C/C=C/C(C)=C\C(=O)O)C(C)(C)CCC1 [cis-RA, 13-cis retinoic acid]

- Kd [3]: 220 ± 15 µM
Compound: CC(C)C[C@H](NC(=O)[C@H](CCCCN)NC(=O)[C@H](CCCNC(=N)N)NC(=O)[C@@H]1CCCN1C(=O)[C@H](COP(=O)(O)O)NC(=O)[C@H](Cc1c[nH]c2ccccc12)NC(=O)[C@H](C)NC(=O)[C@H](CCC(=O)O)NC(=O)[C@H](C)NC(=O)[C@@H](N)CCC(=O)O)C(=O)N1CCC[C@H]1C(=O)O [126-136 (pSer131-P132)] (H-EAEAW[pS]PRKLP-OH)

- inhibition of Pin1 catalytic (PPIase) activity [1]: inhibited its catalytic activity
- Pin1 activation (PPIase assay) [8]: inhibited Pin1 activation
- Pin1 degradation (Pin1 western) [8]: induced Pin1 degradation
- Pin1 inhibition in FP assays ([2]; compared with cis-RA): more potent Pin1 inhibition than cis-RA
- competition with Pin1 catalytic peptidic inhibitors for binding to the Pin1 active site ([2]; preliminary results): effectively competed
- Pin1 levels ([15]; breast cancer cell lines SKBR3 and T47D): reducing Pin1 levels
- degradation of Pin1 and its substrate D1 ([15]; cancer cells): induced the degradation
- binding site in co-crystal structure [17]: bound to Pin1 active site
Compound: CC1=C(/C=C/C(C)=C/C=C/C(C)=C/C(=O)O)C(C)(C)CCC1 [ATRA, all trans retinoic acid]
- inhibition of cell growth [6]: inhibiting cell growth
- production of IL6 [7]: suppressed
- production of IL12 [7]: suppressed
- production of TNF-α [7]: suppressed
- inhibition of Pin1 catalytic (PPIase) activity ([1]; listed as trans-RA): Dose-dependant Pin1 inhibition; also recorded: inhibiting Pin1 PPIase assays
- sensitivity to anti-proliferative effects ([9]; Pin1 KO MEFs): much more resistant
- drug sensitivity ([9]; Pin1 KO MEFs with stable re-expression of Pin1 (not its inactive mutant)): fully restored
- proteinuria [10]: significantly reduced
- effect on normal breast cells [11]: without any effects
- inhibition of cell growth [12]: inhibiting cell growth
- IL-6 secretion [13]: inhibited
- inhibition of Pin1-dependent cancer cell growth [14]: inhibited Pin1-dependent cancer cell growth
- SLE-related phenotypes [16]: suppress SLE-related phenotypes

- Pin1-catalyzed isomerization rate kex [18]: 27 s⁻¹
Compound: ^15N-Ala175-UD157-180: IRAK1 UD157-180 phosphopeptide with a single 15N label at Ala175 (ELGLVPSPASLWPPPP[pS]P[15N‑Ala]PSSTK; not fully specified; also: other phosphorylation sites not given here; UniProt P51617 157-180, looked up, fragment)
